From ChEMBL document CHEMBL1201862, “PubChem BioAssay data set” (2004) come the findings set out here.

Some test systems named below: NCI-H226; A498; SK-MEL-28; OVCAR-5; SN12C; EKVX; NCI-H522; T47D; M14; MDA-MB-435; IGROV-1; MDA-N; HT-29; HCC 2998; SK-MEL-5; HOP-92; SNB-19; CCRF-CEM; HL-60.
What all share (experiment): DTP human tumour cell line panel, 48 h

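Cells were grown in 96-well plates and exposed to each compound for 48 hours at five concentrations; endpoints were interpolated linearly between bracketing concentrations, or set to the highest concentration if not reached. Here, GI50 denotes the concentration required for 50% inhibition of growth.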 Activity calls are given as the source filed them. Cut-off read from the data, not from the text of the source: active = GI50 up to about 1.1 µM and inactive = higher. A value given as a limit tells only on which side of the number the result lay.

As a reminder, the GI50 is the concentration giving 50% growth inhibition. For the molecule `CC(=C\c1ccccc1)/C=C(\C#N)C(N)=O`, the GI50 in the test on NCI-H226, in the test on A498, in the test with SK-MEL-28, in the test on OVCAR-5, with SN12C and in the test with EKVX was > 10 µM (inactive) throughout. Further, the GI50 in the test on NCI-H522, in the test with T47D, with M14, with MDA-MB-435, in the test with IGROV-1 and in the test on MDA-N was > 10 µM (inactive) in each case. The GI50 with HT-29, in the test with HCC 2998 and in the test on SK-MEL-5 was > 10 µM (inactive) in each case.
Take `O=C(O)C1CC(C2CCCCN2)CN2CCCCC12` (configuration not stated): the GI50 with NCI-H226, with A498, in the test with HOP-92, in the test on SK-MEL-28, in the test on SNB-19 and with OVCAR-5 was > 100 µM (inactive) in each case. In addition, the GI50 in the test with SN12C, with EKVX, in the test on T47D, in the test on M14, in the test on MDA-MB-435 and in the test with CCRF-CEM was > 100 µM (inactive) throughout. In addition, the GI50 in the test with IGROV-1, in the test with MDA-N, with HT-29, with HCC 2998 and with SK-MEL-5 was > 100 µM (inactive) in each case.
In the case of `CCn1c(=O)c2nc(SC)sc2n(-c2ccccc2)c1=S`, the GI50 in the test on NCI-H226 was 41 µM (inactive); in the test on HL-60, 3.08 µM (inactive); with HOP-92, 55.5 µM (inactive); in the test on SK-MEL-28 it was > 100 µM (inactive); in the test on SNB-19 it was 89.1 µM (inactive); in the test on OVCAR-5, > 100 µM (inactive). For the same molecule, the GI50 is 86.9 µM (inactive) with SN12C; > 100 µM (inactive) in the test on EKVX; 79.3 µM (inactive) in the test on NCI-H522; 55.7 µM (inactive) with T47D; 65.3 µM (inactive) in the test on M14; 46.7 µM (inactive) in the test with MDA-MB-435. Further, the GI50 was 19.6 µM (inactive) in the test on CCRF-CEM; > 100 µM (inactive) in the test with IGROV-1; 47.2 µM (inactive) in the test on MDA-N; 47.2 µM (inactive) in the test on HT-29; > 100 µM (inactive) in the test with HCC 2998; 39.4 µM (inactive) in the test with SK-MEL-5.
Turning to `COc1ccc2oc(=N)c(C(=O)Nc3cccc4ccccc34)cc2c1`, the GI50 is 25.5 µM (inactive) with NCI-H226; 23.7 µM (inactive) in the test with HL-60; 13.2 µM (inactive) with A498; > 100 µM (inactive) with SK-MEL-28; 13.5 µM (inactive) in the test with SNB-19; 41.3 µM (inactive) in the test on OVCAR-5. Also, the GI50 in the test on SN12C is 37.8 µM (inactive); in the test on EKVX, 38.1 µM (inactive); in the test with T47D, 23.6 µM (inactive); with M14 it was 17.9 µM (inactive); with MDA-MB-435, 0.319 µM (active); in the test with CCRF-CEM it was 2.33 µM (inactive). Besides, the 50% growth inhibitory concentration (GI50) in the test with MDA-N is 0.456 µM (active); in the test with HT-29, 15.1 µM (inactive); in the test on HCC 2998, 58.7 µM (inactive); with SK-MEL-5 it was > 100 µM (inactive).
With `O=C(CSc1n[nH]c(=O)[nH]c1=O)NNC(=O)c1cccc2nc3ccccc3nc12`, the GI50 was 90.4 µM (inactive) in the test on NCI-H226; > 100 µM (inactive) with HL-60; > 100 µM (inactive) with A498; > 100 µM (inactive) with HOP-92; > 100 µM (inactive) with SK-MEL-28; 64.1 µM (inactive) with SNB-19. Moreover, the GI50 in the test with OVCAR-5 was > 100 µM (inactive); in the test on SN12C, 94.8 µM (inactive); with EKVX it was > 100 µM (inactive); in the test with T47D, > 100 µM (inactive); in the test on M14, 68.1 µM (inactive); with MDA-MB-435, 35.4 µM (inactive). The GI50 is > 100 µM (inactive) with CCRF-CEM; > 100 µM (inactive) in the test on IGROV-1; 35.6 µM (inactive) with MDA-N; 49.4 µM (inactive) in the test with HT-29; 40.8 µM (inactive) in the test with HCC 2998; 22 µM (inactive) with SK-MEL-5.
Turning to `Cc1cc(=O)oc2c3c(ccc12)OC(c1ccc(Br)cc1)CC3=O` (configuration not stated), the GI50 in the test on NCI-H226 is 18 µM (inactive); in the test on SK-MEL-28 it was 8.67 µM (inactive); in the test with SNB-19, 5.31 µM (inactive); with OVCAR-5 it was 16.3 µM (inactive); with SN12C it was 5.42 µM (inactive); in the test on EKVX it was 15.1 µM (inactive). In addition, the GI50 in the test on NCI-H522 is 4.42 µM (inactive); in the test on T47D, 0.177 µM (active); with M14, 10.4 µM (inactive); in the test on MDA-MB-435, 4.69 µM (inactive); in the test on CCRF-CEM, 2.21 µM (inactive); in the test on IGROV-1, 10.7 µM (inactive). The GI50 with MDA-N is 8.13 µM (inactive); with HT-29, 14.7 µM (inactive); with HCC 2998, 14.6 µM (inactive); in the test with SK-MEL-5 it was 11.6 µM (inactive).
On to `CN(C)CCc1ccnc2nc(-c3ccc4ccccc4c3)cn12`, for which the GI50 in the test with NCI-H226 was 27.8 µM (inactive); in the test with HL-60, 36.9 µM (inactive); with SK-MEL-28, 45.6 µM (inactive); in the test with SNB-19 it was 69.2 µM (inactive); with OVCAR-5, 47.1 µM (inactive); in the test with SN12C it was 26.8 µM (inactive). The GI50 with EKVX is 38 µM (inactive); in the test on NCI-H522, 12 µM (inactive); in the test with T47D, 34.9 µM (inactive); in the test on M14 it was 47.8 µM (inactive); with MDA-MB-435 it was 33.3 µM (inactive); in the test on CCRF-CEM, 33.3 µM (inactive). Moreover, the GI50 is 23.9 µM (inactive) in the test with IGROV-1; 29.6 µM (inactive) with MDA-N; 17.8 µM (inactive) in the test on HT-29; 18.5 µM (inactive) in the test with HCC 2998; 34.7 µM (inactive) in the test on SK-MEL-5.
Turning to `O=C1CS(=O)(=O)C(c2cccc(Oc3ccccc3)c2)N1c1ccc(Cl)cc1` (configuration not stated), the GI50 with NCI-H226 is 21.9 µM (inactive); in the test with HL-60 it was 24.2 µM (inactive); with HOP-92, 6.14 µM (inactive); with SK-MEL-28 it was 32.4 µM (inactive); in the test with SNB-19 it was 46.7 µM (inactive); with OVCAR-5 it was 25.1 µM (inactive). Besides, the GI50 is 22.1 µM (inactive) with SN12C; 11.5 µM (inactive) with EKVX; 16.8 µM (inactive) in the test with NCI-H522; 10.9 µM (inactive) in the test on T47D; 18.5 µM (inactive) in the test on M14; 17.1 µM (inactive) in the test on MDA-MB-435. In addition, the GI50 was 25.6 µM (inactive) with CCRF-CEM; 14.3 µM (inactive) with IGROV-1; 16.8 µM (inactive) in the test with MDA-N; 25 µM (inactive) in the test on HT-29; 3.4 µM (inactive) in the test on HCC 2998; 12.3 µM (inactive) in the test with SK-MEL-5.
Take `CC(C)(C)n1c(=O)[nH]n(C2NN=Cc3cccc4cccc2c34)c1=O` (configuration not stated): the GI50 in the test on NCI-H226 is 23.2 µM (inactive); in the test with HL-60 it was 12.9 µM (inactive); in the test with A498 it was 25.5 µM (inactive); in the test on SK-MEL-28 it was 57.3 µM (inactive); in the test with SNB-19, 34.9 µM (inactive); with OVCAR-5 it was 69 µM (inactive). For the same molecule, the GI50 is 79.3 µM (inactive) in the test with SN12C; 15.4 µM (inactive) in the test on EKVX; 47.9 µM (inactive) in the test with T47D; 48 µM (inactive) with M14; 34.3 µM (inactive) with MDA-MB-435; 11.5 µM (inactive) with CCRF-CEM. For the same molecule, the GI50 was 26.4 µM (inactive) with MDA-N, 20.4 µM (inactive) in the test with HT-29 and 39.5 µM (inactive) in the test with HCC 2998.
Take `CC(C)n1c(=O)c2nn3c(=O)n(C(C)C)c(=O)c3nn2c1=O`: the GI50 in the test on NCI-H226, in the test on HL-60, with A498, in the test with HOP-92, with SK-MEL-28 and in the test on SNB-19 was > 100 µM (inactive) throughout. Besides, the GI50 in the test on OVCAR-5, with SN12C, in the test on EKVX, with T47D, in the test on M14 and in the test on MDA-MB-435 was > 100 µM (inactive) in each case. For the same molecule, the GI50 with CCRF-CEM, with IGROV-1, with MDA-N, with HT-29, with HCC 2998 and in the test with SK-MEL-5 was > 100 µM (inactive) each time.
As to `N#Cc1c(-c2ccc(F)cc2)c(-c2ccc(F)cc2)nn(CCO)c1=O`, the GI50 is 1.77 µM (inactive) with NCI-H226; 0.091 µM (active) with HL-60; 1.91 µM (inactive) in the test with HOP-92; 17.8 µM (inactive) in the test with SK-MEL-28; 4.9 µM (inactive) in the test with SNB-19; 1.82 µM (inactive) in the test on OVCAR-5. In addition, the GI50 in the test with SN12C is 0.27 µM (active); with EKVX, 0.47 µM (active); in the test on T47D, 2.33 µM (inactive); in the test with MDA-MB-435, 0.0641 µM (active); with CCRF-CEM it was 0.564 µM (active); in the test with IGROV-1, 0.155 µM (active). The concentration for 50% growth inhibition (GI50) with MDA-N is 0.0492 µM (active); in the test with HT-29, 0.143 µM (active); with HCC 2998, 0.605 µM (active); with SK-MEL-5 it was 0.175 µM (active).
Consider `O=C(O)c1cc(N(Cc2ccccc2O)Cc2cc(O)ccc2O)ccc1O` [LAVENDUSTIN A], for which the GI50 with NCI-H226, in the test with HL-60, in the test on A498, in the test with HOP-92, in the test on SK-MEL-28 and in the test on SNB-19 was > 100 µM (inactive) throughout. For the same molecule, the GI50 in the test on OVCAR-5, in the test on SN12C, with EKVX, in the test on T47D, in the test on M14 and with MDA-MB-435 was > 100 µM (inactive) each time. Further, the GI50 in the test with CCRF-CEM was 45.4 µM (inactive); with IGROV-1, > 100 µM (inactive); in the test on MDA-N, > 100 µM (inactive); in the test on HT-29, > 100 µM (inactive); with HCC 2998, > 100 µM (inactive); with SK-MEL-5 it was > 100 µM (inactive).
